Values quoted from earlier work as cited in patent publication EP2933251A1, “PHARMACEUTICAL COMPOSITION USABLE FOR THE TREATMENT OF A PATHOLOGY OF THE FOOT OF A HOOFED MAMMAL” (Weyts, Peter, priority 2014, dated 2015).

System: vaisseaux sanguins du sabot du cheval
Settings: as stated in WO 2006/100468 A1

CC(=O)N[C@@H](CS)C(=O)O [N-acétylcystéine]
contraction des vaisseaux sanguins du sabot du cheval: permet de réduire la contraction des vaisseaux sanguins du sabot du cheval
